The record followed here is publication PMC8621570, “Mechanistic Studies of Antibiotic Adjuvants Reducing Kidney’s Bacterial Loads upon Systemic Monotherapy” (Pharmaceutics, 2021).

Data set [1] in a line: Hydrophobicity by reversed phase HPLC elution. The following applies: % acetonitrile required for elution in reversed phase HPLC, C18 column; rounded to nearest whole number. The data set is classed as physicochemical.
Another data set concerns 12 GNB strains. The class given is cell-based. The following applies: OD measurements, mean of 12 GNB strains. The protocol:
(§1) Bacteria:Escherichia coli strains: 25922 and 35218 (ATCC, Manassas, VA, USA), 14182 (clinical isolate), Ag100 and Ag100A [34] (ΔacrAB) are two K-12 isogenic mutantsand the engineered mutant ML-35p. Additional ESKAPE species tested: Klebsiella pneumoniae strains 1287 and 224 (clinical isolates), Acinetobacter baumannii ATCC strain 19606, Pseudomonas aeruginosa ATCC strains 9027 and 27853. Bacteria were grown in Luria–Bertani (LB) broth (0.5% NaCl, 0.5% yeast extract, 1% tryptone, pH = 7), except for E. coli ML-35p that was grown in tryptic-soy broth.
(§2) Peptide self-assembly was determined by static light scattering measurements as described. Hemolysis was determined by measuring hemoglobin leakage from washed human RBCs, as described. Minimal inhibitory concentration (MIC) was determined using the microdilution assay, as described. Bactericidal kinetics were determined by mixing bacteria with rifampin, OAC, or their combinations, as described. Data were obtained from three independent assays performed in duplicate.

The test system of data set [2] is washed human erythrocytes. The data set is classed as cell-based. The following applies: red cells of human, 3 h. The protocol:
as §2

A short description of data set [3]: Peptide self-assembly (critical aggregation concentration) by static light scattering. The data set is classed as physicochemical. The following applies: light scattering in PBS. The protocol: as §2
The test system of another data set is E. coli 25922. The data set is classed as cell-based, Escherichia coli. As to conditions: 25922, 24 h. How it is done: Sensitization to plasma components was assessed by mixing bacteria with serial two-fold OAC dilutions in 80% human plasma (Israel Blood Bank) or plasma from the specified species (Technion preclinical research authority or VetSource), as described. Data were obtained from three independent experiments.
Figure 3 Animal plasma antibacterial activities against E. coli 25922. (a) Dose-dependent reduction of colony forming units (CFU) as determined 24 h after exposure to C14(ω5)OOc10O in human plasma (80% final plasma concentration in PBS). Values represent the mean ± SD obtained from three individual plasma donors (mean inoculum was 1.6 ± 0.8 × 10^6 CFU/mL). (b) Time-kill kinetics determined upon E. coli exposure to 0, 2.5, 5, and 10 µM C14(ω5)OOc10O (from top to bottom, respectively). Values represent the mean ± SD obtained from two individual plasma samples, each subjected to two independent assays. Panels (c–f), respectively, show the OAC’s concentration-dependent activities in plasma samples obtained from pig, cat, sheep, and dog. The three dashed horizontal lines respectively represent the average CFU count of the vehicle control (upper line), the inoculum (middle line), and the limit of detection (lower line), i.e., log10 50 CFU/mL = 1.69. Green stars (*) denote lack of detectable CFU.

Data set [4] has as its system E. coli ΔacrAB mutant AG100A. In words: microbe, parasite or virus in culture. The data set is classed as cell-based, Escherichia coli. The protocol: as §1, §2
(§3) The wild-type E. coli strain AG100 and its isogenic ΔacrAB mutant AG100A were used to determine the MIC of OACs and of two known acrAB-TolC substrates: the AMP LL-37 and the macrolide antibiotic erythromycin that are normally inefficient against GNB.

For another data set, the system named is E. coli strain AG100. In words: microbe, parasite or virus in culture. The data set is classed as cell-based, Escherichia coli. How it is done: as §1, §2, §3
The subject of data set [5] is extremely resistant GNB strains. In words: Erythromycin MIC in LB medium against GNB. The class given is cell-based. As to conditions: greater than highest tested concentration, read-out: Erythromycin MIC alone. How it is done: (§4) Bacterial sensitization: Sensitization to antibiotics was determined using the checkerboard method in presence of sub-MIC OAC (2.5, 5, and 10 μM), as described. The synergistic effect of the combinations was expressed in terms of the Sensitization Factor (SF), where SF = (MIC antibiotic alone)/(MIC antibiotic upon combination). Data were obtained from three independent assays performed in duplicate.
(§5) Figure 4 Hydrophobicity dependence of antibiotics potentiation by lipopeptide analogs. Sensitization of GNB to rifampin and erythromycin (upper and lower panel, respectively) was assessed by MIC experiments performed in LB medium, in presence or absence of an OAC analog whose A2 position was gradually shortened (from c10 to c6). Pseudomonas aeruginosa 27853 (Pa, blue), Klebsiella pneumoniae 1287 (Kp, green), Escherichia coli 25922 (Ec, red), and Acinetobacter baumannii 19606 (Ab, black).

The test system of a further data set is P. aeruginosa 27853. In words: Excisional skin wound infection model, topical treatment. The class given is in vivo, mouse. As to conditions: hypromellose gel 1% (w/v), 4 h treatment, mice n = 3 per group. How it is done: Animals: All animal studies were performed using male ICR mice (25 ± 2 gr). The Technion Animal Care and Use committee approved all procedures, care, and handling of animals. Ethics approval codes: IL0800519, IL0640421, IL0550618, IL1811217.
For efficacy assessments, three infection models were used including one with topical treatment and two with systemic treatment. • Excisional skin wound infection model: mice were anesthetized by intraperitoneal administration of a mixture of ketamine 100 mg/kg and xylazine 5 mg/kg in PBS and their backs shaved with electric clippers. The following day mice were similarly anesthetized and were administrated (S.C) 0.05 mg/kg buprenorphine (for pain relief). A 5 mm diameter piece of skin was removed from the middle of the shaved back, with sterile biopsy punch resulting in a full-thickness injury. A total of 20 µL of a mid-logarithmic culture, containing 5 × 10^6 CFU P. aeruginosa 27853 were applied on the wound. Then, 15 min after inoculation, about 50 µL of hypromellose gel (prepared as described) containing OAC, antibiotic, or their combination were applied on the skin and covered with a piece of medical tape. As a control, the vehicle (drug-free gel) was similarly applied on the skin. After a treatment period of 4 h, about 8 mm diameter of skin surrounding the infected area was removed, suspended in PBS, homogenized, serially diluted 10-fold, and plated for CFU enumeration. The number of viable bacteria was determined after overnight incubation at 37 °C. The lower limit of detection was 50 CFU/wound. • Thigh infection model (TI): mice were inoculated intramuscularly with 1 × 10^6 CFU/mouse of mid-logarithmic E. coli 25922 and treated subcutaneously 1 and 3 h after inoculation. Mice were sacrificed 24 h after infection, their thighs excised, homogenized, serially diluted 10-fold, and plated for CFU enumeration. The number of viable bacteria was determined after overnight incubation at 37 °C. […] The number of viable bacteria was determined after overnight incubation at 37 °C. […]

In data set [6] the test system is Pseudomonas aeruginosa 27853. In words: Sensitization to rifampin, checkerboard method. The data set is classed as cell-based. The following applies: Pseudomonas aeruginosa, 27853, P. aeruginosa, LB. How it is done:
as §4, §5

For data set [7], the system named is Acinetobacter baumannii 19606. In words: Sensitization to rifampin, checkerboard method. The data set is classed as cell-based. The following applies: Acinetobacter baumannii, 19606, A. baumannii, LB. How it is done: as §4, §5
Another data set concerns Klebsiella pneumoniae. In words: Sensitization to rifampin, checkerboard method. The data set is classed as cell-based. The following applies: Klebsiella pneumoniae, K. pneumoniae, LB. How it is done:
as §4, §5

A further data set relates to Escherichia coli 25922. In words: Sensitization to rifampin, checkerboard method. The class given is cell-based. The following applies: Escherichia coli, 25922, E. coli, LB. The protocol:
as §4, §5

Setting [8] is: no adjuvant, read-out: Rifampin MIC alone.
Where [9] appears, read: with 10 μM C14(ω5)OOc10O, read-out: Rifampin MIC in presence of adjuvant.
[10] abbreviates: with C14(ω5)OOc10O, read-out: Rifampin MIC in presence of adjuvant.

≈ marks a conversion by molar mass, not a printed value. Where two headings read alike, the source gives them in different places. Where a SMILES comes first, the peptide text is derived from it. [ ]: non-standard residue; d: D form. The star is where a group is joined. Myristoyl = CCCCCCCCCCCCCC(=O)*; 12Ado = NCCCCCCCCCCCC(=O)O; Orn = NCCC[C@H](N)C(=O)O Some results are limits rather than exact numbers.

`CCCCC=CCCCCCCCC(=O)N[C@@H](CCCN)C(=O)N[C@@H](CCCN)C(=O)NCCCCCC(=O)N[C@@H](CCCN)C(N)=O` [C14(ω5)OOc6O]: the “H, hydrophobicity” value in data set [1] was determined as 47%. Further, the “MIC, LB medium” value in the data set with 12 GNB strains is over 50 µM. In addition, in data set [2], the “HC50, concentration causing 50% hemolysis compared to water” value is reported as over 100 µM. Besides, in [3], the “CAC, critical aggregation concentration” value is on record as over 100 µM. Besides, in the data set on E. coli 25922, the “MIC, human plasma” value is given as 5 µM (≈ 3.4 µg/mL).

In the case of `CCCCC=CCCCCCCCC(=O)N[C@@H](CCCN)C(=O)N[C@@H](CCCN)C(=O)NCCCCCCCC(=O)N[C@@H](CCCN)C(N)=O` [C14(ω5)OOc8O], the “H, hydrophobicity” value in data set [1] is 48%. In addition, in the data set with 12 GNB strains, the “MIC, LB medium” value is over 50 µM. Also, the “HC50, concentration causing 50% hemolysis compared to water” value in data set [2] is recorded as over 100 µM. Further, the “CAC, critical aggregation concentration” value in data set [3] is over 100 µM. In the data set on E. coli 25922, the “MIC, human plasma” value lay in the range of 2.5 to 5 µM.

Take `CCCCCCCCCCCCCC(=O)N[C@@H](CCCN)C(=O)N[C@@H](CCCN)C(=O)NCCCCCCCCCC(=O)N[C@@H](CCCN)C(N)=O` [C14OOc10O]: the “H, hydrophobicity” value in data set [1] came out at 53%. Moreover, the “MIC, LB medium” value in the data set with 12 GNB strains fell in the range of 12.5 to 25 µM. The “HC50, concentration causing 50% hemolysis compared to water” value in data set [2] came to 28 ± 2 µM. Further, the “CAC, critical aggregation concentration” value in data set [3] came to 45 ± 14 µM. Also, the “MIC, human plasma” value in the data set on E. coli 25922 lay in the range of 10 to 20 µM.

Regarding `CCCCCCCCCCCCCC(=O)N[C@@H](CCCN)C(=O)N[C@@H](CCCN)C(=O)NCCCCCCCCCCCC(=O)N[C@@H](CCCN)C(N)=O` [C14OOc12O] (Myristoyl-[Orn][Orn][12Ado][Orn]-NH2), the “MIC, Ag100A” value in data set [4] (isogenic ΔacrAB mutant AG100A) is 3.1 µM. Also, the MIC in the data set on E. coli strain AG100 (strain AG100) came to 3.1 µM. For the same compound, in data set [1], the “H, hydrophobicity” value was found to be 55%. Also, in the data set with 12 GNB strains, the “MIC, LB medium” value was 3 to 6 µM. Further, the “HC50, concentration causing 50% hemolysis compared to water” value in data set [2] is 14 ± 4 µM. Also, in data set [3], the “CAC, critical aggregation concentration” value is 15 ± 1 µM. Moreover, the “MIC, human plasma” value against E. coli 25922 is recorded as over 20 µM.

With `CC[C@H]1OC(=O)[C@H](C)[C@@H](O[C@H]2C[C@@](C)(OC)[C@@H](O)[C@H](C)O2)[C@H](C)[C@@H](O[C@@H]2O[C@H](C)C[C@H](N(C)C)[C@H]2O)[C@](C)(O)C[C@@H](C)C(=O)[C@H](C)[C@@H](O)[C@]1(C)O` [Erythromycin, reference compound], the MIC in [4] (Escherichia coli, read-out: MIC, Ag100A) was 10.9 µM; with E. coli strain AG100 (Escherichia coli, wild-type E. coli AG100) it was 174 µM; in data set [5], over 512 mg/L.

`NCCC[C@H](NC(=O)CCCCCCCCCCCNC(=O)[C@H](CCCN)NC(=O)[C@@H](N)CCCN)C(N)=O` [OOc12O] (H-[Orn][Orn][12Ado][Orn]-NH2): the “H, hydrophobicity” value in data set [1] amounted to 24%. The “MIC, LB medium” value in the data set on 12 GNB strains is listed as over 50 µM. Moreover, the “HC50, concentration causing 50% hemolysis compared to water” value in [2] is listed as over 100 µM. In addition, the “CAC, critical aggregation concentration” value in data set [3] was over 100 µM. Besides, the “MIC, human plasma” value with E. coli 25922 was over 20 µM.

`CO[C@H]1/C=C/O[C@@]2(C)Oc3c(C)c(O)c4c(O)c(c(/C=N/N5CCN(C)CC5)c(O)c4c3C2=O)NC(=O)/C(C)=C\C=C\[C@H](C)[C@H](O)[C@@H](C)[C@@H](O)[C@@H](C)[C@H](OC(C)=O)[C@@H]1C` [rifampin]: in the data set with P. aeruginosa 27853, the “Reduction of CFU count” value was 1.7 log10 units. In addition, the MIC in data set [6] (setting [8]) was 32 mg/L; in data set [6] (setting [9]), 0.001 mg/L; in [7] (setting [8]) it was 2 mg/L; in data set [7] (setting [10]) it was 0.0005 mg/L; in the data set on Klebsiella pneumoniae (setting [8]), 32 mg/L; in the data set on Klebsiella pneumoniae (setting [10]), 0.0005 mg/L. Further, the results for the MIC in the data set with Escherichia coli 25922 (setting [8]) and with Escherichia coli 25922 (setting [9]) were 8 mg/L and 0.00025 mg/L, respectively.
